IC50 data for 32 compounds are collected here from patent publication US20230024302A1, “2,3,5-TRISUBSTITUTED PYRAZOLO[1,5-A]PYRIMIDINE COMPOUNDS” (Arcus Biosciences, Inc., priority 2019, published 2023).

For experiment [1], the target named is T1, PI3Kγ (p120γ) (Homo sapiens, UniProt P48736).
T1 construct: purchased Promega V1761
Briefly: Inhibition of PI3K kinase activity (ADP Glo), PI3Kγ. To be noted: read-out: biochemical potency (PI3Kγ IC50). An outline of the steps: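 IC50 values come from a 4-parameter nonlinear fit of ADP-Glo luminescence, which measures ADP produced as PIP2 is phosphorylated to PIP3. The p120γ enzyme (2× stock 8 nM) sat with compound 1 h at rt before substrate (2× stocks: 50 μM ATP, 0.1 mg/ml PIP2) was added. Phosphorylation then proceeded 60 min at rt.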

Experiment [2] concerns the target T2, PI3Kγ (Homo sapiens, UniProt P48736).
T2 construct: host or cells: THP-1
Briefly: PI3Kγ cellular assay in THP-1 cells (AKT pS473 AlphaLISA). It is filed as cell-based. An outline of the steps:
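Endogenous AKT S473 phosphorylation, detected by AlphaLISA in lysates, serves as the PI3Kγ activity read-out in stimulated, serum-starved THP-1 cells (1.8×10^5/well).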

Setting [3] is: Table 2, rhMCP-1 stimulated AKT pS473, read-out: cellular potency (PI3Kγ IC50).
The mark [4] stands for this setting: Table 1, rhMCP-1 stimulated AKT pS473, read-out: cellular potency (PI3Kγ IC50).
[5] abbreviates: Table 3, rhMCP-1 stimulated AKT pS473, read-out: cellular potency (PI3Kγ IC50).
[6] abbreviates: AKT pS473, read-out: cellular potency (PI3Kγ IC50).
Where [7] appears, read: Table 6, rhMCP-1 stimulated AKT pS473, read-out: cellular potency (PI3Kγ IC50).

Where two headings read alike, the source gives them in different places. A value given as a limit tells only on which side of the number the result lay.

T2 sequence (P48736 whole entry): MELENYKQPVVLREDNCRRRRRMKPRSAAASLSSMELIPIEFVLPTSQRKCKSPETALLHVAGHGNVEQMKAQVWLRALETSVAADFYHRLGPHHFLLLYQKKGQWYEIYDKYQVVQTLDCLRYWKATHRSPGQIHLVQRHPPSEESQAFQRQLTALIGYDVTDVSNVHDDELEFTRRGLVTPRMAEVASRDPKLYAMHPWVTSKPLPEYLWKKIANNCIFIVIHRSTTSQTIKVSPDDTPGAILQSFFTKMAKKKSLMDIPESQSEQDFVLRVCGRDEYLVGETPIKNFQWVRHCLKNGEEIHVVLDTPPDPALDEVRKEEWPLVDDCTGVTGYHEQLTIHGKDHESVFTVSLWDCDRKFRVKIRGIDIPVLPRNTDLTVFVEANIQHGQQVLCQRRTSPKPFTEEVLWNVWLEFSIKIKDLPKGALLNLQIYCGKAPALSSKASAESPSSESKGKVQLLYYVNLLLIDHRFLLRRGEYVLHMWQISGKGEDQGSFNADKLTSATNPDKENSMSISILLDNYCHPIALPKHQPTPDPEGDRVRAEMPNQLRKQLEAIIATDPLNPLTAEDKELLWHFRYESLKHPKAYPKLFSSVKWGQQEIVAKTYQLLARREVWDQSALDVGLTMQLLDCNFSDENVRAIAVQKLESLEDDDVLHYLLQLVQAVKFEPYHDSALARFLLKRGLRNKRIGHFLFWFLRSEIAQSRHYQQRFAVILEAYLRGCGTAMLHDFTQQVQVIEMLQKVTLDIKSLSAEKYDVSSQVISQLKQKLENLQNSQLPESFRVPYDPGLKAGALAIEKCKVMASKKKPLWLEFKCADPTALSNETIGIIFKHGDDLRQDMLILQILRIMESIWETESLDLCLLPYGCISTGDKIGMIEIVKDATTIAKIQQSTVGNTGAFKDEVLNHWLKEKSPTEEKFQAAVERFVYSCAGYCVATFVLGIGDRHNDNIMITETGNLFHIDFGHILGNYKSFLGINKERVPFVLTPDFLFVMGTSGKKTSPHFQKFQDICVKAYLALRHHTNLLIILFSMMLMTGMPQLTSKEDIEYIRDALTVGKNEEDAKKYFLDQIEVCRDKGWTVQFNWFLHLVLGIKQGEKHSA
T1 sequence (P48736 whole entry): as above

With `Cc1cc(-c2ccn3nc(N)c(C(=O)N[C@H]4CC[C@H](C(=O)O)CC4)c3n2)cc2c1C(=O)N([C@@H](C)C1CC1)C2` [Example 187], the IC50 in experiment [1] (Table 2, p120γ) was under 100 nM; in experiment [2] (setting [3]), 100 to 1000 nM.

As to `C[C@H](N1Cc2cc(-c3ccn4nc(N)c(C(=O)NC5(C#N)COC5)c4n3)cc(NS(C)(=O)=O)c2C1=O)C(F)(F)F` [Example 117, (S)-2-Amino-N-(3-cyanooxetan-3-yl)-5-(7-(methylsulfonamido)-1-oxo-2-(1,1,1-trifluoropropan-2-yl)isoindolin-5-yl)pyrazolo[1,5-a]pyrimidine-3-carboxamide], the IC50 was under 100 nM in experiment [1] (Table 1, p120γ) and under 100 nM in experiment [2] (setting [4]).

`C[C@@H](C1CC1)N1Cc2cc(-c3ccn4nc(N)c(C(=O)NCCO)c4n3)cc(C(F)(F)F)c2C1=O` [Example 51, 2-[(S)-1-Cyclopropylethyl]-5-{2-amino-3-[(2-hydroxyethylamino)carbonyl]-1,4,7a-triaza-5-indenyl}-7-(trifluoromethyl)-1-isoindolinone]: the IC50 in experiment [1] (Table 1, p120γ) was under 100 nM; in experiment [2] (setting [4]) it was under 100 nM.

For the compound `Cc1cc(-c2ccn3nc(N)c(C(=O)NC4(C)COC4)c3n2)cc2c1C(=O)N(C(C)(C)CO)C2` [Example 314], the IC50 in experiment [1] (Table 2, p120γ) is under 100 nM; in experiment [2] (setting [3]), 100 to 1000 nM.

On to `COCC(NC(=O)c1c(N)nn2ccc(-c3cc4c(c(C(F)(F)F)c3)C(=O)N([C@@H](C)C3CC3)C4)nc12)C(C)C` (stereo partly shown) [Example 364], for which the IC50 is under 100 nM in experiment [1] (Table 3, p120γ) and 100 to 1000 nM in experiment [2] (setting [5]).

With `CC(C)[C@H](CO)NC(=O)c1c(N)nn2ccc(-c3cc4c(c(NS(C)(=O)=O)c3)C(=O)N([C@@H](C3CC3)C(F)(F)F)C4)nc12` [Example 400], the IC50 in experiment [1] was under 100 nM; in experiment [2] (setting [6]) it was 100 to 1000 nM.

In the case of `C[C@@H](C1CC1)N1Cc2cc(-c3ccn4nc(N)c(C(=O)N[C@H]5CCNC5=O)c4n3)cc(C(F)(F)F)c2C1=O` [Example 49, 2-Amino-5-{2-[(1S)-1-cyclopropylethyl]-1-oxo-7-(trifluoromethyl)-2,3-dihydro-1H-isoindol-5-yl}-N-[(3S)-2-oxopyrrolidin-3-yl]pyrazolo[1,5-a]pyrimidine-3-carboxamide], the IC50 in experiment [1] (Table 1, p120γ) was under 100 nM; in experiment [2] (setting [4]), under 100 nM.

`Cc1cc(-c2ccn3nc(N)c(C(=O)N[C@@H](C)c4ccccn4)c3n2)cc2c1C(=O)N([C@@H](C)C1CC1)C2` [Example 217]: the IC50 is under 100 nM in experiment [1] (Table 2, p120γ) and 100 to 1000 nM in experiment [2] (setting [3]).

Consider `C[C@@H](C1CC1)N1Cc2cc(-c3ccn4nc(N)c(C(=O)N[C@H]5CC[C@@](C)(O)CC5)c4n3)cc(N3CCN(C)CC3)c2C1=O` [Example 437], for which the IC50 in experiment [1] (Table 6, p120γ) was under 100 nM; in experiment [2] (setting [7]), 100 to 1000 nM.

Consider `C[C@@H](C1CC1)N1Cc2cc(-c3ccn4nc(N)c(C(=O)N[C@H]5CCC[C@H](N)C5)c4n3)cc(C(F)(F)F)c2C1=O` [Example 367], for which the IC50 in experiment [1] (Table 3, p120γ) was under 100 nM; in experiment [2] (setting [5]), over 1000 nM.

In the case of `C[C@@H](C1CC1)N1Cc2cc(-c3ccn4nc(N)c(C(=O)N[C@H]5CC[C@H](O)C5)c4n3)cc(OC(F)(F)F)c2C1=O` [Example 36, 2-Amino-5-{2-[(1S)-1-cyclopropylethyl]-1-oxo-7-(trifluoromethoxy)-2,3-dihydro-1H-isoindol-5-yl}-N-[(1S,3S)-3-hydroxycyclopentyl]pyrazolo[1,5-a]pyrimidine-3-carboxamide], the concentration for half-maximal inhibition (IC50) in experiment [1] (Table 1, p120γ) was under 100 nM; in experiment [2] (setting [4]), under 100 nM.

For the compound `Cc1cc(-c2ccn3nc(N)c(C(=O)N[C@@H](C)C4CCNCC4)c3n2)cc2c1C(=O)N([C@@H](C)C1CC1)C2` [Example 290], the IC50 in experiment [1] (Table 2, p120γ) is 100 to 1000 nM; in experiment [2] (setting [3]), over 1000 nM.

For the compound `Cc1csc(NC(=O)c2c(N)nn3ccc(-c4cc(C)c5c(c4)CN([C@@H](C)C4CC4)C5=O)nc23)n1` [Example 300], the IC50 in experiment [1] (Table 2, p120γ) was under 100 nM; in experiment [2] (setting [3]), over 1000 nM.

For `Cc1cc(-c2ccn3nc(N)c(C(=O)NC4(C(F)(F)F)CC4)c3n2)cc2c1C(=O)N([C@@H](C)C1CC1)C2` [Example 262], the IC50 is under 100 nM in experiment [1] (Table 2, p120γ) and 100 to 1000 nM in experiment [2] (setting [3]).

For `C[C@H](CO)NC(=O)c1c(N)nn2ccc(-c3cc4c(c(NS(C)(=O)=O)c3)C(=O)N([C@@H](C)C(F)(F)F)C4)nc12` [Example 118, 2-Amino-N-[(2R)-1-hydroxypropan-2-yl]-5-{7-methanesulfonamido-1-oxo-2-[(2S)-1,1,1-trifluoropropan-2-yl]-2,3-dihydro-1H-isoindol-5-yl}pyrazolo[1,5-a]pyrimidine-3-carboxamide], the IC50 in experiment [1] (Table 1, p120γ) is under 100 nM; in experiment [2] (setting [4]), under 100 nM.

Regarding `C[C@@H](C1CC1)N1Cc2cc(-c3ccn4nc(N)c(C(=O)Nc5ccnc(CO)c5)c4n3)cc(NS(C)(=O)=O)c2C1=O` [Example 379], the IC50 was under 100 nM in experiment [1] and over 1000 nM in experiment [2] (setting [6]).

Take `Cc1cc(-c2ccn3nc(N)c(C(=O)NCC4(C#N)CC4)c3n2)cc2c1C(=O)N([C@@H](C)C1CC1)C2` [Example 256]: the IC50 is under 100 nM in experiment [1] (Table 2, p120γ) and 100 to 1000 nM in experiment [2] (setting [3]).

`C[C@@H](C1CC1)N1Cc2cc(-c3ccn4nc(N)c(C(=O)Nc5ccccc5)c4n3)cc(C(F)(F)F)c2C1=O` [Example 363]: the IC50 in experiment [1] (Table 3, p120γ) is under 100 nM; in experiment [2] (setting [5]), over 1000 nM.

In the case of `COc1ccc(NC(=O)c2c(N)nn3ccc(-c4cc5c(c(OC(F)(F)F)c4)C(=O)N([C@@H](C)C4CC4)C5)nc23)cn1` [Example 423], the IC50 in experiment [1] (Table 6, p120γ) is under 100 nM; in experiment [2] (setting [7]), 100 to 1000 nM.

`C[C@@H](C1CC1)N1Cc2cc(-c3ccn4nc(N)c(C(=O)Nc5cccc(C(C)(C)O)c5)c4n3)cc(OC(F)(F)F)c2C1=O` [Example 420]: the IC50 in experiment [1] (Table 6, p120γ) was under 100 nM; in experiment [2] (setting [7]), 100 to 1000 nM.

On to `Cc1cc(-c2ccn3nc(N)c(C(=O)Nc4cn(C)nc4C)c3n2)cc2c1C(=O)N([C@@H](C)C1CC1)C2` [Example 292], for which the IC50 is under 100 nM in experiment [1] (Table 2, p120γ) and 100 to 1000 nM in experiment [2] (setting [3]).

For `C[C@@H](C1CC1)N1Cc2cc(-c3ccn4nc(N)c(C(=O)N[C@H]5CNC(=O)C5)c4n3)cc(C(F)(F)F)c2C1=O` [Example 64, 2-Amino-5-{2-[(1S)-1-cyclopropylethyl]-1-oxo-7-(trifluoromethyl)-2,3-dihydro-1H-isoindol-5-yl}-N-[(3R)-5-oxopyrrolidin-3-yl]pyrazolo[1,5-a]pyrimidine-3-carboxamide], the IC50 is under 100 nM in experiment [1] (Table 1, p120γ) and under 100 nM in experiment [2] (setting [4]).

`C[C@@H](C1CC1)N1Cc2cc(-c3ccn4nc(N)c(C(=O)N[C@H]5CCCNC5)c4n3)cc(OC(F)(F)F)c2C1=O` [Example 421]: the IC50 in experiment [1] (Table 6, p120γ) is under 100 nM; in experiment [2] (setting [7]), 100 to 1000 nM.

Turning to `C[C@@H](C1CC1)N1Cc2cc(-c3ccn4nc(N)c(C(=O)N[C@H]5CC[C@@](C)(O)CC5)c4n3)cc(C(F)(F)F)c2C1=O` [Example 54, 2-[(S)-1-Cyclopropylethyl]-5-{2-amino-3-[(cis-4-hydroxy-4-methylcyclohexylamino)carbonyl]-1,4,7a-triaza-5-indenyl}-7-(trifluoromethyl)-1-isoindolinone], the IC50 in experiment [1] (Table 1, p120γ) is under 100 nM; in experiment [2] (setting [4]), under 100 nM.

For the compound `C[C@@H](C1CC1)N1Cc2cc(-c3ccn4nc(N)c(C(=O)N[C@@H]5CNC[C@H]5O)c4n3)cc(OC(F)(F)F)c2C1=O` [Example 418], the IC50 in experiment [1] (Table 6, p120γ) is under 100 nM; in experiment [2] (setting [7]), over 1000 nM.

Consider `C[C@@H](C1CC1)N1Cc2cc(-c3ccn4nc(N)c(C(=O)NCC5(O)CC5)c4n3)cc(NS(C)(=O)=O)c2C1=O` [Example 381], for which the results for the IC50 in experiment [1] and in experiment [2] (setting [6]) were under 100 nM and 100 to 1000 nM, respectively.

Turning to `Cc1nn(C)cc1NC(=O)c1c(N)nn2ccc(-c3cc4c(c(NS(C)(=O)=O)c3)C(=O)N([C@@H](C)C3CC3)C4)nc12` [Example 107, 2-Amino-5-{2-[(1S)-1-cyclopropylethyl]-7-methanesulfonamido-1-oxo-2,3-dihydro-1H-isoindol-5-yl}-N-(1,3-dimethyl-1H-pyrazol-4-yl)pyrazolo[1,5-a]pyrimidine-3-carboxamide], the IC50 in experiment [1] (Table 1, p120γ) is under 100 nM; in experiment [2] (setting [4]) it was under 100 nM.

In the case of `Cc1cc(-c2ccn3nc(N)c(C(=O)NC[C@@H]4CCOC4)c3n2)cc2c1C(=O)N([C@@H](C)C1CC1)C2` [Example 238], the IC50 in experiment [1] (Table 2, p120γ) was under 100 nM; in experiment [2] (setting [3]), 100 to 1000 nM.

As to `Cc1cc(-c2ccn3nc(N)c(C(=O)NC4CCC4)c3n2)cc2c1C(=O)N([C@@H](C)C1CC1)C2` [Example 189], the IC50 was under 100 nM in experiment [1] (Table 2, p120γ) and 100 to 1000 nM in experiment [2] (setting [3]).

For the compound `C[C@@H](C1CC1)N1Cc2cc(-c3ccn4nc(N)c(C(=O)N[C@@H](CO)C5CC5)c4n3)cc(C(F)(F)F)c2C1=O` [Example 353], the IC50 in experiment [1] (Table 3, p120γ) is under 100 nM; in experiment [2] (setting [5]) it was 100 to 1000 nM.

For the compound `Cc1cc(-c2ccn3nc(N)c(C(=O)N[C@H]4CCCC[C@H]4O)c3n2)cc2c1C(=O)N([C@@H](C)C1CC1)C2` [Example 275], the IC50 was under 100 nM in experiment [1] (Table 2, p120γ) and 100 to 1000 nM in experiment [2] (setting [3]).

For the compound `Cc1cc(-c2ccn3nc(N)c(C(=O)N[C@]4(C)C[C@@H](O)C4)c3n2)cc2c1C(=O)N([C@@H](C)C1CC1)C2` [Example 13, 2-Amino-5-{2-[(1S)-1-cyclopropylethyl]-7-methyl-1-oxo-2,3-dihydro-1H-isoindol-5-yl}-N-[trans-3-hydroxy-1-methylcyclobutyl]pyrazolo[1,5-a]pyrimidine-3-carboxamide], the IC50 was under 100 nM in experiment [1] (Table 1, p120γ) and under 100 nM in experiment [2] (setting [4]).
